One assay deals with CRBN/DDB1 (Homo sapiens (Human), UniProt Q96SW2). The class given is binding. The settings on record: His tagged CRBN+DDB1, Cy5-labeled Thalidomide probe, one hour; read-out: CRBN HTRF IC50. As to the method: The binding potency was determined using HTRF assay technology (Perkin Elmer). Compounds were serially diluted in DMSO and […] volume was transferred to white 384-well plate.
For orientation: TR-FRET usually uses a lanthanide donor and a delayed reading to cut background.

Another assay has as its system MCF-7 cells. In words: CellTiter-Glo (CTG) cell proliferation assay in MCF-7 cells. The class given is cell-based. To be noted: Homo sapiens, MCF7, 144 h, MCF-7 cell proliferation, Day 6. From the text: (§1) CellTiter-Glo® (CTG) Assays in MCF-7 and T47D Cell Lines.
(§2) In vitro Assay: MCF-7 and T47D CTG assay
(In general: In ATP-based viability assays light output follows the ATP content of the culture.)

A further assay concerns the target ERα_LBD (GST) (Homo sapiens (Human), UniProt P03372). As to the kind of experiment: IC50 measurements for binding to ERα_LBD (GST), LanthaScreen TR-FRET competitive binding. The settings on record: ERα_LBD (GST) 4 nM, Fluormone ES2 Green tracer, 60 min; read-out: ERα HTRF IC50. In outline: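 Competitive TR-FRET displacement of Fluormone ES2 Green tracer (3 nM) from GST-tagged human ERα LBD (4 nM) with Tb anti-GST (2 nM), in nuclear receptor buffer K plus 5 mM DTT, 1% DMSO. 60 min at room temperature, dark; 520/495 nm ratio vs log[compound] fitted sigmoidally for IC50.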

The target in a further assay is ER in MCF-7 cells (Homo sapiens (Human), UniProt P03372). As to the kind of experiment: In-cell Western (ICW) ER degradation assay in MCF-7 cells. It is filed as cell-based. The settings on record: 16 hrs treatment.
In another assay the test system is T47D cells. In words: CellTiter-Glo (CTG) cell proliferation assay in T47D cells. It is filed as cell-based. The settings on record: Homo sapiens, 144 h, Day 6.
From the text: as §1, §2

For another assay, the target named is ER in T47D cells (Homo sapiens (Human), UniProt P03372). In words: In-cell Western (ICW) ER degradation assay in T47D cells. The class given is cell-based. The settings on record: ER degradation, 16 hrs treatment.

Among the data in US20260028354A1, “TETRAHYDRONAPHTHALENE DERIVATIVES AS ESTROGEN RECEPTOR DEGRADERS” (REGENT OF THE UNIVERSITY OF MICHIGAN, priority 2022, published 2026) are IC50, Dmax and DC50 values, retold here.

Some results are limits rather than exact numbers.

Chain of ER in MCF-7 cells (P03372 whole entry): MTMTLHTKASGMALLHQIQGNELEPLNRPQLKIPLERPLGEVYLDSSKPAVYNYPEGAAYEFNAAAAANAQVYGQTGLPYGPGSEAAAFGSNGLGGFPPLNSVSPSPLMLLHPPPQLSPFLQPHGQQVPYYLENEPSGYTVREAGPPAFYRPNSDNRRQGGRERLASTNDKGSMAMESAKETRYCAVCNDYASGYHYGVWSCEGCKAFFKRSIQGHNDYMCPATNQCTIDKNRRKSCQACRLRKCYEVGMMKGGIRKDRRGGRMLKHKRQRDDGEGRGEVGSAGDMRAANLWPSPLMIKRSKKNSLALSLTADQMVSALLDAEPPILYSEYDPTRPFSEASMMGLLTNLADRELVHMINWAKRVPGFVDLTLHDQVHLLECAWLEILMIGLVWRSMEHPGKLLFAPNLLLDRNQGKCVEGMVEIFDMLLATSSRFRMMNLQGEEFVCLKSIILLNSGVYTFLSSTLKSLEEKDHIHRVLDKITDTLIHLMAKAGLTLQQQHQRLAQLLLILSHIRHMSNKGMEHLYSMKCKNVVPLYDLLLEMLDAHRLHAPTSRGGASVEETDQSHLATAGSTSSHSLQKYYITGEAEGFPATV
Chain of ER in T47D cells (P03372 whole entry): as above
Chain of ERα_LBD (GST) (P03372 311-547): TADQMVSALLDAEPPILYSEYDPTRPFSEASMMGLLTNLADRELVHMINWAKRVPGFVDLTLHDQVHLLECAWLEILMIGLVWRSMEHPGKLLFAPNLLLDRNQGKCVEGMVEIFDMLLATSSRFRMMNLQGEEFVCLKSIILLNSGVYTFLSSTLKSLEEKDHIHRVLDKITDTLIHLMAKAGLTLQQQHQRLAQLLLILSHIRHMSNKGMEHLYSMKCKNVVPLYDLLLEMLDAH
Chain of CRBN/DDB1 (Q96SW2 whole entry, species assumed): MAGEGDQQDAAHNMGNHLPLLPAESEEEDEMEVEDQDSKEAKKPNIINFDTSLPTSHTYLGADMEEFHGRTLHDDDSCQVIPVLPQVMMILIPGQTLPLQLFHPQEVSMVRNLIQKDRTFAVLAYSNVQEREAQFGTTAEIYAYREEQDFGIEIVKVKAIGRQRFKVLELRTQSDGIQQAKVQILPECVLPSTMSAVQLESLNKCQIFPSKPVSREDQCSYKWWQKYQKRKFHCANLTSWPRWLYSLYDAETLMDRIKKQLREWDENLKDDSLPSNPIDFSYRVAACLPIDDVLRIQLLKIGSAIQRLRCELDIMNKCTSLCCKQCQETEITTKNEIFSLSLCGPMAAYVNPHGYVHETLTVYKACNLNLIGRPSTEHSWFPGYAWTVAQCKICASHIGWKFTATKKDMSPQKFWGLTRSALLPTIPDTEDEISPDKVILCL
Chain of CRBN/DDB1 (Q16531 whole entry partner, species assumed): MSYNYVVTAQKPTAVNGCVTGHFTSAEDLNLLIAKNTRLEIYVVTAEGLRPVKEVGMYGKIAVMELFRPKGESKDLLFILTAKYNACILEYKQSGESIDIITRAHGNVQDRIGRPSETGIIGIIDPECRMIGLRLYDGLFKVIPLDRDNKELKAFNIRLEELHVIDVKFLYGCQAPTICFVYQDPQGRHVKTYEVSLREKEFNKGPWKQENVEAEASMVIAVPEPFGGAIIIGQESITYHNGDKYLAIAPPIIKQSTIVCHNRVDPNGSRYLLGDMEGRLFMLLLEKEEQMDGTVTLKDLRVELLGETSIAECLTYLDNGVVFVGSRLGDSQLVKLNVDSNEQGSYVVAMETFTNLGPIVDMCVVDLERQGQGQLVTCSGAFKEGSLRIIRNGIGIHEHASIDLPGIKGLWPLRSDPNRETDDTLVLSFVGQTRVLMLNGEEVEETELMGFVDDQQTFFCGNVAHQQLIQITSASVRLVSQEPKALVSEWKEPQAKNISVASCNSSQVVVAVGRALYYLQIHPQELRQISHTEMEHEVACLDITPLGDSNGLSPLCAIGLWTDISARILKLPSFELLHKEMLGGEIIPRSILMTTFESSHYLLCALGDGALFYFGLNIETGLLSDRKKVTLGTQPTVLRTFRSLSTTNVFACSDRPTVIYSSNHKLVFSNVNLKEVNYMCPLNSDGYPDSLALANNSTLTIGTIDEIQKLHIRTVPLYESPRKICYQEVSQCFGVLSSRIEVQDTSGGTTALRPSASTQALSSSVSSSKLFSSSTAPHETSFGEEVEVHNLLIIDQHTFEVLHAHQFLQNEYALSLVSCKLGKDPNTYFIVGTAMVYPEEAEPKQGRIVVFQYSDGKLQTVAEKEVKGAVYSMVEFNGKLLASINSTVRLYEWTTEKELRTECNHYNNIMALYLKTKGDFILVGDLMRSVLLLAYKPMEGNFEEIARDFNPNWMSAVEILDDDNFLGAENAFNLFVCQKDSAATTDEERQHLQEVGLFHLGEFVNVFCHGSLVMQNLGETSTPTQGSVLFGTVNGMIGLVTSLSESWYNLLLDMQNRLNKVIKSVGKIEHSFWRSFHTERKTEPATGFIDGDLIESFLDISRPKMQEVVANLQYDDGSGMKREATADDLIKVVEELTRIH

One may read the IC50 as the concentration at which inhibition is half-maximal. The term Dmax denotes the largest share of the target that was removed. By DC50 is commonly meant the midpoint of the concentration-degradation curve. Turning to `COc1cc(N2CCC3(CC2)C[C@H](CN2CCN4c5cc6c(cc5OC[C@@H]4C2)C(=O)N([C@H]2CCC(=O)NC2=O)C6)CO3)ccc1[C@@H]1c2ccc(O)cc2CC[C@@H]1c1ccccc1` (single isomer, unassigned) [Compound A135], the half-maximal inhibitory concentration (IC50) at CRBN/DDB1 is 500 to 5000 nM; in the assay with MCF-7 cells it was under 10 nM; on ERα_LBD (GST), under 10 nM; with T47D cells, under 10 nM. Also, the Dmax at ER in MCF-7 cells (MCF7, MCF-7, maximal ER degradation, read-out: MCF7 Dmax) was over 75%. The half-maximal degradation concentration (DC50) at ER in MCF-7 cells (MCF-7, ER degradation, read-out: MCF7 DC50) is under 1 nM; at ER in T47D cells it was under 1 nM.
